Assay results taken from patent US5830770A, “Hapten-protein conjugates for use in detection of organophosphorus compounds” (priority 1993, dated 1998).

Columns and labels:
[1] = tested on: antisera from rabbit 19; type: binding; parameters: key: +++: strong; ++: medium; +: weak reaction; poor: slight; -: none; details: antisera 1:2000, 2 hours at 25° C.
Experimental: (§1) An ELISA was used to screen the antisera for polyclonal antibodies to the generic hapten/conjugate of the invention using the following protocol. Microtitre plates (Costar) were coated with the appropriate hapten conjugate with ovalbumin by diluting that in 0.05M sodium hydrogen carbonate/sodium carbonate buffer (pH 9.6) to give an optimum protein concentration of 1 μg/ml previously determined by chequerboard titration; protein found by Bradford assay. 100 μl was added to each microtitre plate well and the plates placed in a moist chamber overnight, washed 3 times with 0.15 phosphate buffered saline pH7.2 with 0.05% Tween 20[RTM]: PBST), and blotted dry. Blocking was carried out by adding 250 μl per well of 5% skimmed milk for 1 hour at 25° C.
(§2) After two further washings the coated microplates were stored at -20° C. until required, whereon they were washed once with PBST. Antisera were diluted (1/1000 for general screening or doubling dilutions up to 1/512,000 for titration assays) in PSBT, applied to microtitre wells in triplicate in 50 μl amounts and incubated in a moist chamber at 25° C. for 1 hour (appropriate positive and negative controls were included--PBST, negative rabbit serum and positive serum when it had been produced). Wells were then washed 3 times in PBST and 200 μl of a 1:1500 dilution of swine anti-rabbit immunoglobulin conjugated to horseradish peroxidase (DAKO) was added to each well. Plates were incubated once more for 1 hour at 25° C. then washed 3 times with PBST.
(§3) Tetramethylbenzidine (TMB) enzyme substrate solution was prepared by adding 400 μl of 6.0 g/l TMB in DMSO to 24.5 ml of 0.1M sodium acetate buffer pH5.5 with 100 μl of 1% H2 O2 and 100 μl added to the wells. The microplates were incubated for 15 minutes in the dark at 25° C. before the reaction was stopped by adding 50 μl of 2.5M H2 SO4 and the absorbance read at 450 nm against air. Results: are given below with those of Example 6.
(§4) Assay was carried out in the same manner as Example 5 with the following modifications. Antisera was diluted 1:2000 with 1% BSA in PBST and 100 μl was incubated for 2 hours at 25° C. with 100 μl of each concentration of the unconjugated OP--in this case the generic part--in a microtitration plate. Concentrations of OP ranged from 200 to 0.001 μg ml^-1.
(§5) Cross reactivity of antisera from rabbits 19, 20 and 21 by inhibition ELISA with the various organophosphorus pesticides is shown in Table 5 in which concentration (μg ml^-1) for 50% inhibition to occur is given together with the diluent in which this is achieved--PBST or % methanol in PBST for figures.

[2] = tested on: antisera from rabbit 21; type: binding; parameters: key: +++: strong; ++: medium; +: weak reaction; poor: slight; -: none; details: antisera 1:2000, 2 hours at 25° C.
Experimental: as §1, §2, §3, §4, §5

[3] = tested on: antisera from rabbit 20; type: binding; parameters: key to cross reactivity by inhibition ELISA, Rabbit 20: +++: strong; ++: medium; +: weak reaction; poor: slight; -: none; details: for cross reactivity by inhibition ELISA, Rabbit 20: antisera 1:2000, 2 hours at 25° C.; for concentration for 50% inhibition: Rabbit 20, diluent 10% methanol in PBST
Experimental: as §1, §2, §3, §4, §5

[4] = tested on: generic antibodies; test: Relative inhibition of binding of generic antibodies to hapten conjugate; parameters: species or system rabbit; details: inhibition at 100 μg/ml minus inhibition at 0.1 μg/ml organophosphate
Experimental: as §4

## COP(=S)(OC)Oc1nc(Cl)c(Cl)cc1Cl [Chlorpyrifos-methyl]
[1]
  cross reactivity by inhibition ELISA, Rabbit 19: poor
[2]
  cross reactivity by inhibition ELISA, Rabbit 21: poor
[3]
  cross reactivity by inhibition ELISA, Rabbit 20: poor
[4]
  Relative inhibition of binding of generic antibodies to hapten conjugate as % of hapten + spacer inhibition: 29.2%

## COP(=O)(OC)O/C(=C\Cl)c1cc(Cl)c(Cl)cc1Cl [Tetrachlorvinphos, tetrachlorvinphos]
[1]
  cross reactivity by inhibition ELISA, Rabbit 19: -
[2]
  cross reactivity by inhibition ELISA, Rabbit 21: poor
[3]
  cross reactivity by inhibition ELISA, Rabbit 20: poor
[4]
  Relative inhibition of binding of generic antibodies to hapten conjugate as % of hapten + spacer inhibition: 27.2%

## OCCCCO [Spacer, 1,4 butanediol]
[1]
  cross reactivity by inhibition ELISA, Rabbit 19: -
[2]
  cross reactivity by inhibition ELISA, Rabbit 21: -
[3]
  cross reactivity by inhibition ELISA, Rabbit 20: -

## CCN(CC)c1nc(C)cc(OP(=S)(OC)OC)n1 [Pirimiphos-methyl, pirimiphos-methyl]
[1]
  cross reactivity by inhibition ELISA, Rabbit 19: -
[2]
  cross reactivity by inhibition ELISA, Rabbit 21: -
[3]
  cross reactivity by inhibition ELISA, Rabbit 20: poor
[4]
  Relative inhibition of binding of generic antibodies to hapten conjugate as % of hapten + spacer inhibition: 21.1%

## CCOP(=O)(OCC)OC(=CCl)c1ccc(Cl)cc1Cl [Chlorfenvinphos, chlorfenvinphos]
[1]
  cross reactivity by inhibition ELISA, Rabbit 19: -
[2]
  cross reactivity by inhibition ELISA, Rabbit 21: +
[3]
  cross reactivity by inhibition ELISA, Rabbit 20: +
[4]
  Relative inhibition of binding of generic antibodies to hapten conjugate as % of hapten + spacer inhibition: 33.4%

## CCOC(=O)CC(SP(=S)(OC)OC)C(=O)OCC (stereo not drawn) [Malathion, malathion]
[1]
  cross reactivity by inhibition ELISA, Rabbit 19: -
[2]
  cross reactivity by inhibition ELISA, Rabbit 21: -
[3]
  cross reactivity by inhibition ELISA, Rabbit 20: +
[4]
  Relative inhibition of binding of generic antibodies to hapten conjugate as % of hapten + spacer inhibition: 38.6%

## CCNP(=S)(OC)O/C(C)=C/C(=O)OC(C)C (stereo not drawn) [Propetamphos, propetamphos]
[1]
  cross reactivity by inhibition ELISA, Rabbit 19: +
[2]
  cross reactivity by inhibition ELISA, Rabbit 21: ++
[3]
  concentration for 50% inhibition: 36.2 µg/mL
  cross reactivity by inhibition ELISA, Rabbit 20: +++
[4]
  Relative inhibition of binding of generic antibodies to hapten conjugate as % of hapten + spacer inhibition: 75.9%

## CNC(=O)CSP(=S)(OC)OC [Dimethoate, dimethoate]
[1]
  cross reactivity by inhibition ELISA, Rabbit 19: -
[2]
  cross reactivity by inhibition ELISA, Rabbit 21: +
[3]
  concentration for 50% inhibition: > 150 µg/mL
  cross reactivity by inhibition ELISA, Rabbit 20: ++
[4]
  Relative inhibition of binding of generic antibodies to hapten conjugate as % of hapten + spacer inhibition: 41.4%
